Test system: panel of cancer cell lines
Experiment: Cell viability (CellTiter-Glo) dose-response across cancer cell line panel;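 note: after 72 h compound incubation with CellTiter-Glo ATP readout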
Format: cell-based, human
Settings: Homo sapiens
Excerpt: Next, we explored the effect of CSN5 inhibition on the viability of cancer cells. To obtain a comprehensive picture, we generated dose–response curves with a CSN5 inhibitor across more than 500 cancer cell lines in a previously described standardized setting[47] (Supplementary Data 1).
A standardized CellTiter-Glo Assay (Promega #G7570) based on the quantification of ATP was applied according to the manufacturer's protocol to measure the amount of viable cells in culture. In brief, cells were seeded into 384-well plates at optimal density for each cell line. After 4 h, compounds were added at different concentrations in growth medium and incubated for another 72 h in a humidifying chamber at 37 °C and 5% CO2. […] EC50 values were calculated from the plot of percentage of inhibition versus inhibitor concentration using the nonlinear regression analysis software Origin 7.5SR6 (OriginLab Corp.).

EC50 (HCC1500, HCC1500): 5.16 nM | EC50 (HCC1569, HCC1569): 6.77 nM | EC50 (HCC1806, HCC1806): 24.8 nM | EC50 (HCC1937, HCC1937): 7.46 nM | EC50 (HCC1954, HCC1954): 3.14 nM | EC50 (HCC2218, HCC2218): 9.79 nM | EC50 (HCT-15, HCT-15): 26.6 nM | EC50 (HCT-116, HCT 116): 6.91 nM | EC50 (HEC-1-A, cell line HEC-1-A): 15.5 nM | EC50 (HEC-6, HEC-6): 21.4 nM | EC50 (HEC-50B): 25.2 nM | EC50 (HEC-59): 7.32 nM | EC50 (HEC-151): 21.6 nM | EC50 (HEC-251, HEC-251): 9.46 nM | EC50 (HEC-265): 17 nM | EC50 (HEL 92.1.7, HEL 92.1.7): 5.21 nM | EC50 (HEY A8, Hey-A8): 56.7 nM | EC50 (HGC-27, HGC-27): 16.2 nM | EC50 (HLC-1): 11.1 nM | EC50 (HLF): 13.8 nM | EC50 (HMC-1-8): 7.01 nM | EC50 (HMCB): 9.61 nM | EC50 (HPBALL, HPB-ALL): 3.18 nM | EC50 (HRT-18, HRT-18): 53.1 nM | EC50 (HT): 1.72 nM | EC50 (HT55, HT55): 31 nM | EC50 (HT115, HT115): 8.52 nM | EC50 (HT-29, HT-29): 18.4 nM | EC50 (HT-144, HT-144): 8.93 nM | EC50 (HT-1080, HT-1080): 20.1 nM | EC50 (HT-1376, HT-1376): 18.1 nM | EC50 (HTK-): 17.1 nM | EC50 (Hs 294T): 11.4 nM | EC50 (Hs 571.T): 10.2 nM | EC50 (Hs 611.T): 6.13 nM | EC50 (Hs 695T): 3.73 nM | EC50 (Hs 729): 7.87 nM | EC50 (Hs766T, Hs 766T): 19.8 nM | EC50 (Hs 936.T): 8.25 nM | EC50 (Hs 939.T): 4.42 nM | EC50 (Hs 940.T): 3.97 nM | EC50 (Hs 944.T): 12.7 nM | EC50 (Hs-578T, Hs 578T): 10.3 nM | EC50 (HuH-1, cell line huH-1): 44.7 nM | EC50 (HuP-T3, HUP-T3): 7.39 nM | EC50 (IGR-1, IGR-1): 8.66 nM | EC50 (IGR-37, IGR-37): 8.3 nM | EC50 (IGR-39, IGR-39): 7.6 nM | EC50 (IGROV-1, IGROV1): 26.8 nM | EC50 (IMR-32, IMR-32): 5.94 nM | EC50 (IPC-298, cell line IPC-298): 9.44 nM | EC50 (Ishikawa, Ishikawa (Heraklio) 02 ER-): 16.1 nM | EC50 (J82, J82): 11.9 nM | EC50 (JHH7, cell line JHH-7): 10.2 nM | EC50 (JHH-2, cell line JHH-2): 18.3 nM | EC50 (JHOM-1): 4.86 nM | EC50 (JHUEM-2): 5.6 nM | EC50 (JIMT-1, JIMT-1): 13.9 nM | EC50 (JJN-3, JJN-3): 2.61 nM | EC50 (JVM-2, JVM-2): 4.69 nM | EC50 (JVM-3, JVM-3): 8.69 nM | EC50 (JeKo-1, JeKo-1): 7.3 nM | EC50 (Jurkat): 9.14 nM | EC50 (K029AX): 4.76 nM | EC50 (K562, K-562): 16.3 nM | EC50 (KARPAS-299, KARPAS-299): 5.88 nM | EC50 (KARPAS-422, KARPAS-422): 6.19 nM | EC50 (KASUMI-2): 3.8 nM | EC50 (KATO III, cell line KATO III): 7.88 nM | EC50 (KCL-22, KCL-22): 4.19 nM | EC50 (KHM-1B): 4.04 nM | EC50 (KLE): 12.8 nM | EC50 (KM12, KM12): 23.9 nM | EC50 (KMM-1, KMM-1): 4.45 nM | EC50 (KMRC-1, KMRC-1): 6.75 nM | EC50 (KMRC-20): 10.1 nM | EC50 (KMS-11, KMS-11): 3.19 nM | EC50 (KMS-12-BM): 5.34 nM | EC50 (KMS-26, KMS-26): 11.5 nM | EC50 (KMS-28BM): 3.85 nM | EC50 (KMS-34, KMS-34): 12.2 nM | EC50 (KNS-62, KNS-62): 19.3 nM | EC50 (KO52): 2.37 nM | EC50 (KP-1N): 7.49 nM | EC50 (KP-1NL): 9.41 nM | EC50 (KP-N-SI9s): 8.48 nM | EC50 (KP-N-YN): 20.2 nM | EC50 (KPL-1, KPL-1): 20.5 nM | EC50 (KU812, KU812): 4 nM | EC50 (KYM-1): 4.88 nM | EC50 (KYO1, KYO-1): 6.59 nM | EC50 (KYSE-30, KYSE-30): 7.82 nM | EC50 (KYSE-70, cell line KYSE-70): 18 nM | EC50 (KYSE-150, cell line KYSE-150): 6.63 nM | EC50 (KYSE-270, cell line KYSE-270): 10.3 nM | EC50 (KYSE-410, cell line KYSE-410): 21.2 nM | EC50 (KYSE-450, KYSE-450): 16 nM | EC50 (KYSE-510, cell line KYSE-510): 11.9 nM | EC50 (KYSE-520, cell line KYSE-520): 13.4 nM | EC50 (Karpas-620, KARPAS-620): 6.17 nM | EC50 (Kelly): 3.53 nM | EC50 (Ki-JK): 4.34 nM | EC50 (L3.3): 29.6 nM | EC50 (L-363, L-363): 5.51 nM | EC50 (LAMA-84, LAMA-84): 5.36 nM | EC50 (LCLC-97TM1, LCLC-97TM1): 8.39 nM | EC50 (LCLC-103H): 10.1 nM | EC50 (LK-2, LK-2): 11.7 nM | EC50 (LMSU): 10.3 nM | EC50 (LN-18, LN-18): 15.3 nM | EC50 (LN-229, LN-229): 8.7 nM | EC50 (LOX IMVI): 26.4 nM | EC50 (LP-1, LP-1): 5.99 nM | EC50 (LS180, LS 180): 16.4 nM | EC50 (LS-411N, LS411N): 17.3 nM | EC50 (LXF-289, LXF-289): 14.3 nM | EC50 (Li-7, Li-7): 15.6 nM | EC50 (LoVo): 13.4 nM | EC50 (Loucy): 2.54 nM | EC50 (Lu-65, LU65): 7.61 nM | EC50 (Lu-99, LU99): 15.4 nM | EC50 (MB 157): 6.39 nM | EC50 (MC116, cell line MC116): 9.81 nM | EC50 (MCAS): 8.1 nM | EC50 (MCF7, MCF7): 38 nM | EC50 (MDA-MB-175-VII): 10.3 nM | EC50 (MDA-MB-231, MDA-MB-231): 10.9 nM | EC50 (MDA-MB-415, MDA-MB-415): 16.1 nM | EC50 (MDA-MB-436, MDA-MB-436): 12.6 nM | EC50 (MDA-MB-453, MDA-MB-453): 6.73 nM | EC50 (MDA-MB-468, MDA-MB-468): 5.97 nM | EC50 (MDST8, MDST8): 8.17 nM | EC50 (MEC1, MEC-1): 4.98 nM | EC50 (MEG-01, MEG-01): 8.7 nM | EC50 (MEL-JUSO): 10.6 nM | EC50 (MFE-296, cell line MFE-296): 19.8 nM | EC50 (MG-63, MG-63): 5.92 nM | EC50 (MHH-NB-11): 10.4 nM | EC50 (MIA PaCa-2, cell line MIA PaCa-2): 15.1 nM | EC50 (MINO): 6.8 nM | EC50 (MKN-1, cell line MKN1): 6.81 nM | EC50 (MKN-7, cell line MKN7): 7.08 nM | EC50 (MKN-45, cell line MKN-45): 8.03 nM | EC50 (MKN-74, cell line MKN74): 8.77 nM | EC50 (MM1.S, cell line MM1-S): 2 nM | EC50 (MOLM16, MOLM-16): 1.95 nM | EC50 (MOLM-13, MOLM-13): 5.21 nM | EC50 (MOLP-8, MOLP-8): 7.29 nM | EC50 (MOLT-16, MOLT-16): 1.73 nM | EC50 (MONO-MAC-6, MONO-MAC-6): 10.9 nM | EC50 (MOR/CPR): 39.6 nM | EC50 (MSTO-211H, cell line MSTO-211H): 22 nM | EC50 (MV4-11, cell line MV-4-11): 5.18 nM | EC50 (Malme-3M): 3.27 nM | EC50 (Maver1, cell line MAVER-1): 6.73 nM | EC50 (MeWo, cell line MeWo): 8.08 nM | EC50 (Mel202, cell line Mel202): 10.1 nM | EC50 (Mono-Mac-1, MONO-MAC-1): 7.98 nM
SMILES: CC(C)C[C@H](NC(=O)[C@H](Cc1ccccc1)NC(=O)c1cnccn1)B(O)O [Bortezomib]

Source: paper PMC5078989, “Targeted inhibition of the COP9 signalosome for treatment of cancer” (Nature Communications, 2016)
